Our source for the IC50 values is patent US12509454B2, “Thiadiazolyl derivatives” (IDEAYA Biosciences, Inc., priority 2019, dated 2025).

The assay addresses Pol theta (1-899) (Homo sapiens (Human), UniProt O75417). As to the kind of experiment: Pol theta ATPase activity, NADH oxidation-coupled enzymatic assay. It counts as biochemical. To be noted: Pol theta (1-899) 10 nM, ATP, dT50 ssDNA, absorbance 340 nm, 10-point dilution series; read-out: ATPase NADH coupling:Standard Screening:hPolQ IC50. On the procedure: The ability of the compounds of Formula (I) to inhibit ATPase activity of Pol theta (1-899) was determined using the assay described below.
Pol Theta ATPase activity was determined by measuring the rate of ATP turn over in a NADH oxidation-coupled enzymatic assay. 10-point dilution series of compounds were used in a 384 well format for the inhibition assays. Pol theta (1-899) (10 nM) in assay buffer (20 mM Tris HCl (pH 7.80), 80 mM KCl, 10 mM MgCl2, 1 mM DTT, 0.01% BSA, 0.01% Tween, 5% glycerol) was transferred to the test wells (20 μL), except the low control wells (20 μL of assay buffer was added to the low control wells). The plate was then incubated at room temperature for 15 min. An equal volume (20 μL) of 100 μM ATP, 300 nM dT50 (single-stranded DNA (ssDNA) containing 50 thymine bases), 300 μM NADH, 6 mM PEP, 10 U/mL lactate dehydrogenase and 20 U/mL pyruvate kinase in assay buffer was added to all the test wells. The plate was then centrifuged at 1000 rpm for 1 min. The reaction was monitored for 30 min by measuring absorbance (λ=340 nm) in a Tecan Spark multimode plate reader every minute. The high control (DMSO with enzyme) with low absorbance intensity represents no inhibition of ATPase reaction while the low control (DMSO with buffer) with high absorbance intensity represents full inhibition of ATPase activity. Slope of the reaction progress curves were used to calculate the rate of ATP hydrolysis. The rates were used to determine the percent inhibition using a four-parameter inhibition model to generate IC50, Hill slope and max inhibition.

Pol theta (1-899), sequence (O75417 1-899): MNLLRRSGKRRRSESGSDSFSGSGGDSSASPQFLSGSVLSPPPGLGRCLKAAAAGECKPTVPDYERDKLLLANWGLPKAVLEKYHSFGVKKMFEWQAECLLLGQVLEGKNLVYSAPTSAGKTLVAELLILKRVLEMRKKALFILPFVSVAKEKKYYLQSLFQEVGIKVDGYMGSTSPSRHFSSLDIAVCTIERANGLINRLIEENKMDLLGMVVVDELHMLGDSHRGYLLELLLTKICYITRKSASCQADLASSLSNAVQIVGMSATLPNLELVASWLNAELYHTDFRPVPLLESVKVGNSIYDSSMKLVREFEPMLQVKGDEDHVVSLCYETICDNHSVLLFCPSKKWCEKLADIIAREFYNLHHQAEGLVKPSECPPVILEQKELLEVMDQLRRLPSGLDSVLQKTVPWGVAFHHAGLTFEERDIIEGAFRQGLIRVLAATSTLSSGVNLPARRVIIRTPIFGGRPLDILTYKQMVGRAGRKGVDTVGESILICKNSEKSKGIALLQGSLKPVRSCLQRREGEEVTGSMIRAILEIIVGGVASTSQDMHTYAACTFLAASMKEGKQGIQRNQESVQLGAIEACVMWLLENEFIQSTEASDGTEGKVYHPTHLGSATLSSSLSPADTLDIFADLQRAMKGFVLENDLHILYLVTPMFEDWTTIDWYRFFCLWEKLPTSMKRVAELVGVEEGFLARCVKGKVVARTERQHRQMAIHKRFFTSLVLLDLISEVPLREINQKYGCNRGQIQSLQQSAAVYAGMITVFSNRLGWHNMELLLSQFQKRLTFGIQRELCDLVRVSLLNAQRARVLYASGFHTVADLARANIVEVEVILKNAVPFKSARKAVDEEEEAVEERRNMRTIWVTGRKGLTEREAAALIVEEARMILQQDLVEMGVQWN

With `CC1C(=O)NCCN1c1ncccc1C(=O)Nc1nnc(OCc2ccc(Cl)cc2)s1` (racemic) [Example 52, (R) N-(5-((4-chlorobenzyl)oxy)-1,3,4-thiadiazol-2-yl)-2-(2-methyl-3-oxopiperazin-1-yl)nicotinamide and (S) N-(5-((4-chlorobenzyl)oxy)-1,3,4-thiadiazol-2-yl)-2-(2-methyl-3-oxopiperazin-1-yl)nicotinamide], the IC50 lay within 200 to 500 nM. The value for `O=C1CN(c2ncccc2C(=O)Nc2nnc(OCc3ccc(Cl)cc3)s2)CCN1` [Example 27, N-(5-((4-chlorobenzyl)oxy)-1,3,4-thiadiazol-2-yl)-2-(3-oxopiperazin-1-yl)nicotinamide] was 200 to 500 nM. The result for `COc1ccccc1-c1cc(CCC(N)=O)ncc1C(=O)Nc1nnc(OCc2ccc(Cl)cc2)s1` [Example 163, 6-(3-amino-3-oxopropyl)-N-(5-((4-chlorobenzyl)oxy)-1,3,4-thiadiazol-2-yl)-4-(2-methoxyphenyl)nicotinamide] reads at most 200 nM; that for `O=C(Nc1nnc(OCc2ccc(Cl)cc2)s1)c1cnccc1-c1ccccc1C(F)(F)F` [Example 132, N-(5-((4-chlorobenzyl)oxy)-1,3,4-thiadiazol-2-yl)-4-(2-(trifluoromethyl)phenyl)nicotinamide], at most 200 nM; that for `COc1ccccc1-c1cnc(C)cc1C(=O)Nc1nnc(OCc2ccc(Cl)cn2)s1` [Example 191, N-[5-[(5-chloropyridin-2-yl)methoxy]-1,3,4-thiadiazol-2-yl]-5-(2-methoxyphenyl)-2-methylpyridine-4-carboxamide], 200 to 500 nM. Take `COc1ccccc1-c1cc(C)ncc1C(=O)Nc1nnc(OCc2ccc(C#N)cn2)s1` [Example 219, N-(5-((5-cyanopyridin-2-yl)methoxy)-1,3,4-thiadiazol-2-yl)-4-(2-methoxyphenyl)-6-methylnicotinamide]: the IC50 was at most 200 nM.

In the case of `Cc1cc(-c2ccccc2OC(F)F)c(C(=O)Nc2nnc(OCc3ccc(Cl)cc3)s2)cn1` [Example 114, N-[5-[(4-chlorophenyl)methoxy]-1,3,4-thiadiazol-2-yl]-4-[2-(difluoromethoxy)phenyl]-6-methylpyridine-3-carboxamide], the concentration for half-maximal inhibition (IC50) is at most 200 nM. `C[C@@H]1COC[C@@H](C)N1c1cnccc1C(=O)Nc1nnc(OCc2ccc(Cl)cc2)s1` [Example 144, N-(5-((4-chlorobenzyl)oxy)-1,3,4-thiadiazol-2-yl)-3-((3R,5R)-3,5-dimethylmorpholino)isonicotinamide]: the IC50 is at most 200 nM.

`C[C@@H]1COCCN1c1ncccc1C(=O)Nc1nnc(OCc2ccc(Cl)cn2)s1` [Example 22, (R)—N-(5-((5-chloropyridin-2-yl)methoxy)-1,3,4-thiadiazol-2-yl)-2-(3-methylmorpholino)nicotinamide]: the IC50 lay within 1000 to 10000 nM.

As for `C[C@H]1COCCN1c1ncccc1C(=O)Nc1nnc(OCc2ccc(Cl)cc2)s1` [Example 10, (S)—N-(5-((4-chlorobenzyl)oxy)-1,3,4-thiadiazol-2-yl)-2-(3-methyl-morpholino)nicotinamide], the IC50 was in the range of 500 to 1000 nM. `O=C(Nc1nnc(OCc2ccc(Cl)cc2)s1)c1cccnc1N1CCN(CCO)C(=O)C1` [Example 68, N-(5-((4-chlorobenzyl)oxy)-1,3,4-thiadiazol-2-yl)-2-(4-(2-hydroxyethyl)-3-oxopiperazin-1-yl)nicotinamide]: the IC50 lay in the range of 1000 to 10000 nM.

On to `O=C(Nc1nnc(OCc2ccc(Cl)cc2)s1)c1cccnc1N1CCN2C(=O)CCC2C1` (racemic) [Example 57, (R) N-(5-((4-chlorobenzyl)oxy)-1,3,4-thiadiazol-2-yl)-2-(6-oxohexahydropyrrolo[1,2-a]pyrazin-2(1H)-yl)nicotinamide and (S) N-(5-((4-chlorobenzyl)oxy)-1,3,4-thiadiazol-2-yl)-2-(6-oxohexahydropyrrolo[1,2-a]pyrazin-2(1H)-yl)nicotinamide], for which the IC50 lay within 500 to 1000 nM. The value for `COc1cc(COc2nnc(NC(=O)c3cccnc3N3CCOCC3)s2)ccc1Cl` [Example 34, N-(5-((4-chloro-3-methoxybenzyl)oxy)-1,3,4-thiadiazol-2-yl)-2-morpholinonicotinamide] was 1000 to 10000 nM. The result for `COc1ccccc1-c1cnccc1C(=O)Nc1nnc(OCc2cccc3[nH]ncc23)s1` [Example 181, N-[5-(1H-indazol-4-ylmethoxy)-1,3,4-thiadiazol-2-yl]-3-(2-methoxyphenyl)pyridine-4-carboxamide] reads at most 200 nM; that for `COc1cccc(F)c1-c1cc(C)ncc1C(=O)Nc1nnc(OCc2ccc(Cl)cc2)s1` [Example 183, N-(5-((4-chlorobenzyl)oxy)-1,3,4-thiadiazol-2-yl)-4-(2-fluoro-6-methoxyphenyl)-6-methylnicotinamide], at most 200 nM. `COc1ccccc1-n1nncc1C(=O)Nc1nnc(OCc2ccc(F)cc2)s1` [Example 82, N-(5-((4-fluorobenzyl)oxy)-1,3,4-thiadiazol-2-yl)-1-(2-methoxyphenyl)-1H-1,2,3-triazole-5-carboxamide]: the concentration for half-maximal inhibition (IC50) is at most 200 nM. The result for `COc1ccccc1-c1cc(C)ncc1C(=O)Nc1nnc(OCc2ncccc2F)s1` [Example 210, N-[5-[(3-fluoropyridin-2-yl)methoxy]-1,3,4-thiadiazol-2-yl]-4-(2-methoxyphenyl)-6-methylpyridine-3-carboxamide] reads at most 200 nM. The result for `O=C(Nc1nnc(OCc2ccc(Cl)cc2)s1)c1cccnc1-n1cnnn1` [Example 11, N-(5-((4-chlorobenzyl)oxy)-1,3,4-thiadiazol-2-yl)-2-(1H-tetrazol-1-yl)nicotinamide] reads 1000 to 10000 nM; that for `N#Cc1cnc(N2CCOCC2)c(C(=O)Nc2nnc(OCc3ccc(Cl)cn3)s2)c1` [Example 33, N-(5-((5-chloropyridin-2-yl)methoxy)-1,3,4-thiadiazol-2-yl)-5-cyano-2-morpholinonicotinamide], 500 to 1000 nM; that for `CNC(=O)c1cc(N2CCNC(=O)CC2)c(C(=O)Nc2nnc(OCc3ccc(Cl)cc3)s2)cn1` [Example 87, N^5-(5-((4-chlorobenzyl)oxy)-1,3,4-thiadiazol-2-yl)-N2-methyl-4-(5-oxo-1,4-diazepan-1-yl)pyridine-2,5-dicarboxamide], 500 to 1000 nM. Turning to `COc1ccccc1-c1cnccc1C(=O)Nc1nnc(OCc2ccc(C3CC3)nc2)s1` [Example 101, N-[5-[(6-cyclopropylpyridin-3-yl)methoxy]-1,3,4-thiadiazol-2-yl]-3-(2-methoxyphenyl)pyridine-4-carboxamide], the half-inhibitory concentration (IC50) is at most 200 nM. The value for `N#Cc1ccc(OC(F)F)c(-c2cnccc2C(=O)Nc2nnc(OCc3ccc(Cl)cc3)s2)c1` [Example 108, N-(5-((4-chlorobenzyl)oxy)-1,3,4-thiadiazol-2-yl)-3-(5-cyano-2-(difluoromethoxy)phenyl)isonicotinamide] was at most 200 nM; that for `O=C(Nc1nnc(OCc2ccc(F)cc2)s1)c1cccnc1N1CCOCC1` [Example 1, N-(5-((4-fluorobenzyl)oxy)-1,3,4-thiadiazol-2-yl)-2-morpholinonicotinamide] was 1000 to 10000 nM. The value for `COc1ccccc1-c1cc(CO)ncc1C(=O)Nc1nnc(OCc2ccc(Cl)cc2)s1` [Example 102, N-(5-((4-chlorobenzyl)oxy)-1,3,4-thiadiazol-2-yl)-6-(hydroxymethyl)-4-(2-methoxyphenyl)nicotinamide] was at most 200 nM. Regarding `O=C(Nc1nnc(OCc2ccc(Cl)cc2)s1)c1ccncc1-c1ccccc1OC1COC1` [Example 134, N-[5-[(4-chlorophenyl)methoxy]-1,3,4-thiadiazol-2-yl]-3-[2-(oxetan-3-yloxy)phenyl]pyridine-4-carboxamide], the IC50 was at most 200 nM.

In the case of `COc1ccccc1-n1cncc1C(=O)Nc1nnc(OCc2ccc(C3CC3)cc2)s1` [Example 149, N-(5-((4-cyclopropylbenzyl)oxy)-1,3,4-thiadiazol-2-yl)-1-(2-methoxyphenyl)-1H-imidazole-5-carboxamide], the IC50 was at most 200 nM. For `COc1cnccc1-c1cc(C)ncc1C(=O)Nc1nnc(OCc2ccc(Cl)cn2)s1` [Example 194, N-(5-((5-chloropyridin-2-yl)methoxy)-1,3,4-thiadiazol-2-yl)-3′-methoxy-6-methyl-[4,4′-bipyridine]-3-carboxamide], the 50% inhibitory concentration (IC50) was at most 200 nM. The result for `COc1c(C#N)cccc1-c1cnccc1C(=O)Nc1nnc(OCc2ccc(Cl)cc2)s1` [Example 159, N-(5-((4-chlorobenzyl)oxy)-1,3,4-thiadiazol-2-yl)-3-(3-cyano-2-methoxyphenyl)isonicotinamide] reads at most 200 nM; that for `COc1ccccc1-n1cncc1C(=O)Nc1nnc(OCc2ccc(Cl)cc2)s1` [Example 50, N-(5-((4-chlorobenzyl)oxy)-1,3,4-thiadiazol-2-yl)-1-(2-methoxyphenyl)-1H-imidazole-5-carboxamide], at most 200 nM. On to `Cc1cc(-c2ccccc2CO)c(C(=O)Nc2nnc(OCc3ccc(Cl)cn3)s2)cn1` [Example 203, N-[5-[(5-chloropyridin-2-yl)methoxy]-1,3,4-thiadiazol-2-yl]-4-[2-(hydroxymethyl)phenyl]-6-methylpyridine-3-carboxamide], for which the IC50 was at most 200 nM.
